Measured values taken from patent US5545639A, “Method of inhibiting transformed cells” (The United States of America as represented by the …, priority 1994, dated 1996).

Assays:
L1210 mouse cells = assay: Example 3: growth of L1210 mouse cells with bis(halomethyl)phenanthrolines plus copper, with or without BCS; assay type: cell-based; details: at highest concentration tested (3 μM); copper 10 μM, BCS 100 μM
Protocol: Bis(halomethyl)phenanthroline compounds were synthesized according to the method of Newkome et al., J. Org. Chem., 48, 5112-5114 (1983). Such compounds, namely, 2,9-bis(bromomethyl)phenanthroline and 2,9-bis(chloromethyl)phenanthroline, were added in the presence of copper, but with or without BCS (the copper chelator shown in Examples 1 and 2 to reduce inhibitory activity), to the culture media of L1210 mouse cells, using the same methods of Examples 1 and 2. The concentrations of copper and BCS used in these experiments were 10 μM and 100 μM, respectively. The growth of the cells as a percent of control were determined, and the results plotted in the graph of FIG. 3, wherein open squares (.quadrature.) represent the compound plus copper chelate and solid squares (.box-solid.) represent the compound together with both copper and BCS addition to the culture medium.

A549/ATCC = assay: Dose response of growth, tumor cell line; assay type: cell-based; details: Homo sapiens, non-small cell lung cancer
Protocol: (§1) Indeed, 70% of the cell lines were shown not only to experience precluded growth, but cell death, when exposed to less then 100 μM of the active ingredient.

CCRF-CEM = assay: Dose response of growth, tumor cell line; assay type: cell-based; details: Homo sapiens, leukemia
Protocol: as §1

DLD-A = assay: Dose response of growth, tumor cell line; assay type: cell-based; details: Homo sapiens, colon cancer
Protocol: as §1

DMS 114 = assay: Dose response of growth, tumor cell line; assay type: cell-based; details: Homo sapiens, DMS 114, small cell lung cancer
Protocol: as §1

EKVX = assay: Dose response of growth, tumor cell line; assay type: cell-based; details: Homo sapiens, non-small cell lung cancer
Protocol: as §1

HL-60 (TB) = assay: Dose response of growth, tumor cell line; assay type: cell-based; details: Homo sapiens, leukemia
Protocol: as §1

HOP-18 = assay: Dose response of growth, tumor cell line; assay type: cell-based; details: Homo sapiens, HOP-18, non-small cell lung cancer
Protocol: as §1

HOP-62 = assay: Dose response of growth, tumor cell line; assay type: cell-based; details: Homo sapiens, HOP-62, non-small cell lung cancer
Protocol: as §1

HT29 = assay: Dose response of growth, tumor cell line; assay type: cell-based; details: Homo sapiens, HT-29, HT29, colon cancer
Protocol: as §1

M19-MEL = assay: Dose response of growth, tumor cell line; assay type: cell-based; details: Homo sapiens, melanoma
Protocol: as §1

MALME-3M = assay: Dose response of growth, tumor cell line; assay type: cell-based; details: Homo sapiens, melanoma
Protocol: as §1

MCF7/ADR-RES = assay: Dose response of growth, tumor cell line; assay type: cell-based; details: Homo sapiens, miscellaneous
Protocol: as §1

NCI-H226 = assay: Dose response of growth, tumor cell line; assay type: cell-based; details: Homo sapiens, NCI-H226, non-small cell lung cancer
Protocol: as §1

OVCAR-8 = assay: Dose response of growth, tumor cell line; assay type: cell-based; details: Homo sapiens, OVCAR-8, ovarian cancer
Protocol: as §1

RPMT-8226 = assay: Dose response of growth, tumor cell line; assay type: cell-based; details: Homo sapiens, RPMT-8226, leukemia
Protocol: as §1

SK-MEL-5 = assay: Dose response of growth, tumor cell line; assay type: cell-based; details: Homo sapiens, SK-MEL-5, melanoma
Protocol: as §1

SN12C = assay: Dose response of growth, tumor cell line; assay type: cell-based; details: Homo sapiens, renal cancer
Protocol: as §1

SW-620 = assay: Dose response of growth, tumor cell line; assay type: cell-based; details: Homo sapiens, SW-620, colon cancer
Protocol: as §1

U251 = assay: Dose response of growth, tumor cell line; assay type: cell-based; details: Homo sapiens, U-251, U251, CNS cancer
Protocol: as §1

UACC-62 = assay: Dose response of growth, tumor cell line; assay type: cell-based; details: Homo sapiens, UACC-62, melanoma
Protocol: as §1

P388/ADR = assay: Dose response of growth, tumor cell line; assay type: cell-based, murine; details: miscellaneous
Protocol: as §1

P388 = assay: Dose response of growth, tumor cell line; assay type: cell-based, murine; details: P388, miscellaneous
Protocol: as §1

[1] = read-out: 50% Growth (Relative to Control)
[2] = read-out: No Growth (Relative to Control)
[3] = Mus musculus, read-out: 50% Growth (Relative to Control)
[4] = Mus musculus, read-out: No Growth (Relative to Control)

For `ClCc1ccc2ccc3ccc(CCl)nc3c2n1` [2,9-bis(chloromethyl)-1,10-phenanthroline], the “difference between the copper-chelated and the unchelated derivative” value (L1210 mouse cells) was 10%, the IC50 (A549/ATCC; [1]) was 5.14 µM and the CC50 (A549/ATCC; read-out: 50% Loss (50% kill)) was over 100 µM. It also gave an IC100 (A549/ATCC; [2]) of over 100 µM, an IC50 (CCRF-CEM; [1]) of 1.8 µM and a CC50 (CCRF-CEM; read-out: 50% Loss (50% kill)) of over 100 µM. It also gave an IC100 (CCRF-CEM; [2]) of 8.64 µM, an IC50 (DLD-A; [1]) of 1.48 µM and a CC50 (DLD-A; read-out: 50% Loss (50% kill)) of 5.72 µM. It also gave an IC100 (DLD-A; [2]) of 2.91 µM, an IC50 (DMS 114; [1]) of 1.62 µM and an IC100 (DMS 114; [2]) of 3.53 µM. The IC50 (EKVX; [1]) was 28.1 µM, the CC50 (EKVX; read-out: 50% Loss (50% kill)) was over 100 µM and the IC100 (EKVX; [2]) was over 100 µM. The IC50 (HL-60 (TB); [1]) was 1.8 µM, the CC50 (HL-60 (TB); read-out: 50% Loss (50% kill)) was 23 µM and the IC100 (HL-60 (TB); [2]) was 4.43 µM. The IC50 (HOP-18; [1]) was 3.02 µM, the CC50 (HOP-18; read-out: 50% Loss (50% kill)) was 31.2 µM and the IC100 (HOP-18; [2]) was 9.71 µM. For the same compound, the IC50 (HOP-62; [1]) was 2.29 µM, the CC50 (HOP-62; read-out: 50% Loss (50% kill)) was 19.2 µM and the IC100 (HOP-62; [2]) was 5.3 µM. It also gave an IC50 (HT29; [1]) of 1.31 µM, a CC50 (HT29; read-out: 50% Loss (50% kill)) of 5.48 µM and an IC100 (HT29; [2]) of 2.68 µM. The IC50 (M19-MEL; [1]) was 1.31 µM, the CC50 (M19-MEL; read-out: 50% Loss (50% kill)) was 5.28 µM and the IC100 (M19-MEL; [2]) was 2.63 µM. The IC50 (MALME-3M; [1]) was 1.89 µM, the CC50 (MALME-3M; read-out: 50% Loss (50% kill)) was 6.16 µM and the IC100 (MALME-3M; [2]) was 3.41 µM. The IC50 (MCF7/ADR-RES; [1]) was 1.93 µM, the CC50 (MCF7/ADR-RES; read-out: 50% Loss (50% kill)) was over 100 µM and the IC100 (MCF7/ADR-RES; [2]) was 4.48 µM. It also gave an IC50 (NCI-H226; [1]) of 3.06 µM, a CC50 (NCI-H226; read-out: 50% Loss (50% kill)) of 68.3 µM and an IC100 (NCI-H226; [2]) of 9.91 µM. The IC50 (OVCAR-8; [1]) was 6.85 µM, the CC50 (OVCAR-8; read-out: 50% Loss (50% kill)) was over 100 µM and the IC100 (OVCAR-8; [2]) was over 100 µM. The IC50 (RPMT-8226; [1]) was 1.25 µM, the CC50 (RPMT-8226; read-out: 50% Loss (50% kill)) was over 100 µM and the IC100 (RPMT-8226; [2]) was 36.6 µM. It also gave an IC50 (SK-MEL-5; [1]) of 1.59 µM, a CC50 (SK-MEL-5; read-out: 50% Loss (50% kill)) of 9.45 µM and an IC100 (SK-MEL-5; [2]) of 3.88 µM. It also gave an IC50 (SN12C; [1]) of 3.35 µM, a CC50 (SN12C; read-out: 50% Loss (50% kill)) of over 100 µM and an IC100 (SN12C; [2]) of over 100 µM. The IC50 (SW-620; [1]) was 3.18 µM, the CC50 (SW-620; read-out: 50% Loss (50% kill)) was over 100 µM and the IC100 (SW-620; [2]) was 14.1 µM. It also gave an IC50 (U251; [1]) of 2.06 µM, a CC50 (U251; read-out: 50% Loss (50% kill)) of 8.11 µM and an IC100 (U251; [2]) of 4.09 µM. It also gave an IC50 (UACC-62; [1]) of 1.18 µM, a CC50 (UACC-62; read-out: 50% Loss (50% kill)) of 5.07 µM and an IC100 (UACC-62; [2]) of 2.45 µM. It also gave an IC50 (P388/ADR; [3]) of 0.355 µM, an IC100 (P388/ADR; [4]) of 3.82 µM and a CC50 (P388/ADR; read-out: 50% Loss (50% kill)) of over 100 µM. For the same compound, the IC50 (P388; [3]) was 0.735 µM, the IC100 (P388; [4]) was 3.01 µM and the CC50 (P388; read-out: 50% Loss (50% kill)) was 25.1 µM.
